{"source": "paper PMC5981617", "about": "“Targeted Delivery of Cell Penetrating Peptide Virus-like Nanoparticles to Skin Cancer Cells” (Scientific Reports, 2018)", "type_in_all_cases": "cell-based, human", "key": {"[1]": {"test_system": "A431 cells", "assay": "Endocytosis inhibitory assay (entry of FITC-peptide, fluorescence microscopy)", "settings": "30 min pre-treatment, then FITC-NRPDSAQFWLHH 0.25 mM, 16 h, 37 °C; CPZ 6 µg/mL, MβCD 1.5 mM, Cyt D 10 µg/mL, genistein 200 µM", "procedure": "Four endocytosis inhibitors [Cyt D (10 µg/mL; Calbiochem, San Diego, California, USA), CPZ (6 µg/mL; Santa Cruz Biotechnology, Dallas, Texas, USA), MβCD (1.5 mM; Sigma Aldrich, St. Louis, Missouri, USA) and genistein (200 µM; Calbiochem, San Diego, California, USA)] were used to study the energy-dependent endocytosis of peptide […] into A431 cells. The cells (200,000 cells/well) were seeded onto sterile glass coverslips which had been placed in a six-well plate, and incubated at 37 °C for overnight. The medium was then removed and the cells were pretreated with the inhibitors at 37 °C for 30 min. After the pretreatment with inhibitors, FITC-[…] (0.25 mM) was added to the cells and incubated for 16 h at 37 °C in the presence of inhibitors. After removing the medium, the cells were washed, fixed and stained with Hoechst 33342. The cells were mounted onto a glass slide and examined under a fluorescence microscope."}, "[2]": {"test_system": "A431 cells", "assay": "MTT assay, cell viability in the presence of endocytosis inhibitors", "settings": "Cyt D 10 µg/mL, genistein 200 µM, CPZ 6 µg/mL, MβCD 1.5 mM, n = 3"}, "[3]": {"test_system": "A431 cells", "assay": "Internalisation of FITC-labelled peptide, fluorescence microscopy", "settings": "0.25 mM, 37 °C, 16 h", "procedure": "(§1) The selective internalisation property of peptide […] was tested on NHDF and A431 cells. These cells (200,000 cells/well) were seeded separately onto sterile glass coverslips which had been placed in a six-well plate, and incubated overnight at 37 °C. After changing the medium, the cells were added with FITC-conjugated peptide (FITC-[…]; 0.25 mM; Mimotopes Pty Ltd, Clayton, Victoria, Australia), and incubated for 16 h at 37 °C. The cells were then washed 3 times with PBS and fixed with paraformaldehyde [3.7% (w/v)]. Hoechst 33342 was added and incubated for 10 min to stain the cell nuclei. The cells were mounted onto a glass slide and observed under a fluorescence microscope.\n(§2) A431 and HT29 cell lines (200,000 cells/well) were seeded onto sterile glass coverslips in a six-well plate and incubated overnight at 37 °C. After changing the medium, peptide FITC-[…] (0.25 mM) was added to the cell lines and incubated at 37 °C for 16 h in a CO2 incubator. The cells were then washed, fixed, stained with Hoechst 33342, and viewed under a fluorescence microscope. The amount of phage internalised into A431 and HT29 cells (1 × 10^6 cells) which had been incubated with the purified phage (1 × 10^12 pfu) at 37 °C for 12 h was measured with the phage titration assay as described above."}, "[4]": {"test_system": "NHDF cells", "assay": "Internalisation of FITC-labelled peptide, fluorescence microscopy", "settings": "0.25 mM, 37 °C, 16 h", "procedure": "as §1"}, "[5]": {"test_system": "HT29 cells", "assay": "Internalisation of FITC-labelled peptide in cell line with lower EGFr expression", "settings": "0.25 mM, 37 °C, 16 h; HT29 9 × 10^3 EGFr/cell; fluorescence microscopy", "procedure": "as §2"}}, "note": "Counter-ions that a name gives are not always drawn. No end group written: not given here. *: point of attachment. FITC = O=C1OC2(c3ccc(O)cc3Oc3cc(O)ccc32)c2ccc(NC(=S)*)cc21", "data": [{"compound": "CN(C)CCCN1c2ccccc2Sc2ccc(Cl)cc21", "note": "[CPZ, chlorpromazine hydrochloride]", "values": [{"measurement": "Effect of endocytosis inhibitor on internalisation of peptide NRPDSAQFWLHH (green granular appearance)", "setting": "[1]", "value": "reduced drastically"}, {"measurement": "Viability of A431 cells in the presence of inhibitor", "setting": "[2]", "value": "over 83%"}]}, {"compound": "C=C1[C@@H](C)[C@H]2[C@H](Cc3ccccc3)NC(=O)[C@]23[C@H](OC(C)=O)/C=C/[C@@](C)(O)C(=O)[C@@H](C)C/C=C/[C@H]3[C@@H]1O", "note": "[Cyt D, cytochalasin D]", "values": [{"measurement": "Effect of endocytosis inhibitor on internalisation of peptide NRPDSAQFWLHH (green granular appearance)", "setting": "[1]", "value": "did not inhibit internalisation"}, {"measurement": "Viability of A431 cells in the presence of inhibitor", "setting": "[2]", "value": "over 83%"}]}, {"compound": "O=c1c(-c2ccc(O)cc2)coc2cc(O)cc(O)c12", "note": "[genistein]", "values": [{"measurement": "Effect of endocytosis inhibitor on internalisation of peptide NRPDSAQFWLHH (green granular appearance)", "setting": "[1]", "value": "did not inhibit internalisation"}, {"measurement": "Viability of A431 cells in the presence of inhibitor", "setting": "[2]", "value": "over 83%"}]}, {"compound": "methyl-β-cyclodextrin [MβCD]", "values": [{"measurement": "Effect of endocytosis inhibitor on internalisation of peptide NRPDSAQFWLHH (green granular appearance)", "setting": "[1]", "value": "reduced drastically"}, {"measurement": "Viability of A431 cells in the presence of inhibitor", "setting": "[2]", "value": "over 83%"}]}, {"compound": "{FITC}-NRPDSAQFWLHH", "values": [{"measurement": "Internalisation of FITC-labelled peptide into A431 cells", "setting": "[3]", "value": "taken up efficiently"}, {"measurement": "Internalisation of FITC-labelled peptide into NHDF cells", "setting": "[4]", "value": "no significant fluorescent signal was observed"}, {"measurement": "Internalisation of FITC-labelled peptide into HT29 cells", "setting": "[5]", "value": "no significant green fluorescent granules were observed"}]}]}
